In patent US7541020B2, “Aminoalkyl glucosaminide phosphate compounds and their use as adjuvants and immunoeffectors” (priority 1997, dated 2009):
Several values for one entry are separate records, joined by “and”; a condition that tells them apart may be missing. Equal entries are not always repeated. Where two headings read alike, the source gives them in different places.

Tests used:
influenza A/HK/68 = assay type: in vivo, ICR mice
TNF-α = test: Cytokine induction in human whole blood ex vivo culture: TNF-α (ELISA); assay type: cell-based; details: 4 hr
Description: (§1) AGP compounds were solubilized in 10% EtOH-water and diluted to various concentrations. Fifty μl of each dilution were added to 450 μl of whole human blood. Controls were treated with culture media (RPMI). The reaction mixture was incubated at 37° C. for 4 hr with constant mixing on a rotator. Sterile PBS (1.5 ml) was added to the reaction mixture, the cells were centrifuged and the supernatents removed for cytokine testing. The concentration of TNF-α and IL-1β in each supernatent was determined using immunoassay ELISA kits from R&D Systems.

IL-1β = test: Cytokine induction in human whole blood ex vivo culture: IL-1β (ELISA); assay type: cell-based; details: 4 hr
Description: as §1

[1] = Fever response in rabbits (pyrogenicity); assay type: in vivo; details: for PYROGENICITY Total Rise ° C., 3 rabbits: 10 ug/kg, cumulative rise ≥1.5 degree in three rabbits is considered pyrogenic; for PY[…]: rabbits
Description: The AGP compounds were also evaluated for their tendency to induce a fever response in rabbits. Each compound was formulated in 10% (v/v) ethanol/water solution at 100 mg/ml, then diluted with D5W to the desired concentration. The material was injected at 3 ml/kg body weight into 3 rabbits. The rise in core temperature of the rabbits was recorded.

E.G7 (OVA) cells = details: s.c. 25 μg OVA in AGP preparation, spleen cells 21 days later
ovalbumin = test: Stimulation of antiovalbumin antibody production; assay type: in vivo, BDF1 female mice; details: 50 μg AGP + 50 μg ovalbumin; second immunization day 21; bled 14 days after second injection
Description: BDF1 female mice (8 per group) were immunized with 0.2 ml of emulsions containing 50 μg of the AGPs +50 μg of ovalbumin. A second immunization was administered 21 days post primary. Each mouse was bled 14 days after the second injection.

tetanus toxoid [2] = details: mouse, in vivo, sc
tetanus toxoid [3] = system: tetanus toxoid; design: species or system BFD1 (C57B1/6X DBA/2) female mice; details: mouse, in vivo
[4] = 25 μg AGP + 1 HAU FI-Flu in 0.2% TEoA, once, bled day 14, Table 11

N-[(R)-3-Octanoyloxytetradecanoyl]-O-[2-deoxy-4-O-phosphono-2-[(R)-3-octanoyloxytetradecanoylamino]-3-O-[(R)-3-octanoyloxytetradecanoyl]-β-D-glucopyranosyl]-L-serine Triethylammonium Salt [B17]
Percent Survival (influenza A/HK/68; mouse, in vivo): 40% | Titer^−1 IgG1 (influenza A/HK/68; mouse, in vivo): 3200 | Titer^−1 IgG2a (influenza A/HK/68; mouse, in vivo): 3200 | Titer^−1 IgG2b (influenza A/HK/68; mouse, in vivo): 1600 | Titer^−1 Total IgG (influenza A/HK/68; mouse, in vivo): 6400 | TNF-α (TNF-α; Dosage 1000 ng/ml, Table 19): 2.6 pg/mL | TNF-α (TNF-α; Dosage 5000 ng/ml, Table 19): 2.2 pg/mL | TNF-α (TNF-α; Dosage 10,000 ng/ml, Table 19): 2.8 pg/mL | IL-1β (IL-1β; Dosage 1000 ng/ml, Table 19): 0.2 pg/mL | IL-1β (IL-1β; Dosage 5000 ng/ml, Table 19): 0 pg/mL | IL-1β (IL-1β; Dosage 10,000 ng/ml, Table 19): 0 pg/mL | PYROGENICITY Total Rise ° C., 3 rabbits [1]: 3.4 °C | % Cytotoxicity (E.G7 (OVA) cells; E:T 12.5:1): 15% | % Cytotoxicity (E.G7 (OVA) cells; E:T 25:1): 26% | % Cytotoxicity (E.G7 (OVA) cells; E:T 50:1): 39%

N-[(R)-3-Tetradecanoyloxytetradecanoyl]-O-[2-Deoxy-4-O-phosphono-2-[(R)-3-tetradecanoyloxytetradecanoylamino]-3-O-[(R)-3-tetradecanoyloxytetradecanoyl]-β-D-glucopyranosyl]-L-serine Triethylammonium Salt [B11]
Anti-ovalbumin IgG1 T/C (ovalbumin): 1.6 | Anti-ovalbumin IgG1 Titer (ovalbumin): 2650 | Anti-ovalbumin IgG2a T/C (ovalbumin): 1.7 | Anti-ovalbumin IgG2a Titer (ovalbumin): 550 | Anti-ovalbumin IgG2b T/C (ovalbumin): 1.6 | Anti-ovalbumin IgG2b Titer (ovalbumin): 375 | Anti-ovalbumin IgM T/C (ovalbumin): 1.3 | Anti-ovalbumin IgM Titer (ovalbumin): 250 | Anti-ovalbumin Total Ig T/C (ovalbumin): 0.7 | Anti-ovalbumin Total Ig Titer (ovalbumin): 150 | Percent Survival (influenza A/HK/68; mouse, in vivo): 30% | Titer^−1 IgG1 (influenza A/HK/68; mouse, in vivo): 200 | Titer^−1 IgG2a (influenza A/HK/68; mouse, in vivo): 1600 | Titer^−1 IgG2b (influenza A/HK/68; mouse, in vivo): 400 | Titer^−1 Total IgG (influenza A/HK/68; mouse, in vivo): 1600 | TNF-α (TNF-α; Dosage 100 ng/ml, Table 17): 127 pg/mL | TNF-α (TNF-α; Dosage 500 ng/ml, Table 17): 125 pg/mL | TNF-α (TNF-α; Dosage 1000 ng/ml, Table 17): 115 pg/mL | TNF-α (TNF-α; Dosage 5000 ng/ml, Table 17): 139 pg/mL | TNF-α (TNF-α; Dosage 10,000 ng/ml, Table 17): 181 pg/mL | IL-1β (IL-1β; Dosage 100 ng/ml, Table 17): 59.8 pg/mL | IL-1β (IL-1β; Dosage 500 ng/ml, Table 17): 55.8 pg/mL | IL-1β (IL-1β; Dosage 1000 ng/ml, Table 17): 54.5 pg/mL | IL-1β (IL-1β; Dosage 5000 ng/ml, Table 17): 61.7 pg/mL | IL-1β (IL-1β; Dosage 10,000 ng/ml, Table 17): 62.3 pg/mL | PY[…] [1]: 0.3 to 0.6 µg/kg | Anti-tetanus toxoid IgG1 T/C (tetanus toxoid [2]): 1.86 | Anti-tetanus toxoid IgG1 Titer (tetanus toxoid [2]): 400,000 | Anti-tetanus toxoid IgG2a Titer (tetanus toxoid [2]): 10,450 | Anti-tetanus toxoid IgG2a titer (tetanus toxoid [2]): 5900 | Anti-tetanus toxoid IgG2b Titer (tetanus toxoid [2]): 26,800 | Anti-tetanus toxoid IgG2b titer (tetanus toxoid [2]): 8400 | Anti-tetanus toxoid IgM T/C (tetanus toxoid [2]): 4.75 and 3.3 | Anti-tetanus toxoid IgM Titer (tetanus toxoid [2]): 7,600 | Anti-tetanus toxoid IgM titer (tetanus toxoid [2]): 5120 | Anti-tetanus toxoid Total IgG T/C (tetanus toxoid [2]): 3.6 | Anti-tetanus toxoid Total IgG Titer (tetanus toxoid [2]): 23,200 | % Cytotoxicity (E.G7 (OVA) cells; E:T 12.5:1): 5% | % Cytotoxicity (E.G7 (OVA) cells; E:T 25:1): 8% | % Cytotoxicity (E.G7 (OVA) cells; E:T 50:1): 14%

CCCCCCCCCCCCCC(=O)O[C@H](CCCCCCCCCCC)CC(=O)N[C@H]1[C@H](OCCN(CC(=O)O)C(=O)C[C@@H](CCCCCCCCCCC)OC(=O)CCCCCCCCCCCCC)O[C@H](CO)[C@@H](OP(=O)(O)O)[C@@H]1OC(=O)C[C@@H](CCCCCCCCCCC)OC(=O)CCCCCCCCCCCCC.CCN(CC)CC [B27, N-(Carboxymethyl)-N-[(R)-3-tetradecanoyloxytetradecanoyl]-2-aminoethyl 2-Deoxy-4-O-phophono-2-[(R)-3-tetradecanoyloxytetradecanoylamino]-3-O-[(R)-3-tetradecanoyloxytetradecanoyl]-β-d-glucopyranoside Triethylammonium Salt]
IgG1 T/C Ratio (tetanus toxoid [3]): 1.6 | IgG1 Titer (tetanus toxoid [3]): 10,400 | IgG2a T/C Ratio (tetanus toxoid [3]): 12.0 | IgG2a Titer (tetanus toxoid [3]): 900 | IgG2b T/C Ratio (tetanus toxoid [3]): 11.6 | IgG2b Titer (tetanus toxoid [3]): 9,000 | IgM T/C Ratio (tetanus toxoid [3]): 4.0 | IgM Titer (tetanus toxoid [3]): 11,200 | Total Ig T/C Ratio (tetanus toxoid [3]): 3.2 | Total Ig Titer (tetanus toxoid [3]): 6,800 | Anti-ovalbumin IgG1 T/C (ovalbumin): 0.8 | Anti-ovalbumin IgG1 Titer (ovalbumin): 1275 | Anti-ovalbumin IgG2a T/C (ovalbumin): 0.1 | Anti-ovalbumin IgG2a Titer (ovalbumin): 38 | Anti-ovalbumin IgG2b T/C (ovalbumin): 0.5 | Anti-ovalbumin IgG2b Titer (ovalbumin): 113 | Anti-ovalbumin IgM T/C (ovalbumin): 1.6 | Anti-ovalbumin IgM Titer (ovalbumin): 300 | Anti-ovalbumin Total Ig T/C (ovalbumin): 0.6 | Anti-ovalbumin Total Ig Titer (ovalbumin): 138 | PYROGENICITY Total Rise ° C., 3 rabbits [1]: 3.9 °C | % Cytotoxicity (E.G7 (OVA) cells; E:T 12.5:1): 5% | % Cytotoxicity (E.G7 (OVA) cells; E:T 25:1): 9% | % Cytotoxicity (E.G7 (OVA) cells; E:T 50:1): 17%

CCCCCCCCCCCCCC(=O)O[C@H](CCCCCCCCCCC)CC(=O)N[C@H]1[C@H](OC[C@H](NC(=O)C[C@@H](CCCCCCCCCCC)OC(=O)CCCCCCCCCCCCC)C(=O)OC)O[C@H](CO)[C@@H](OP(=O)(O)O)[C@@H]1OC(=O)C[C@@H](CCCCCCCCCCC)OC(=O)CCCCCCCCCCCCC.CCN(CC)CC [B26, N-[(R)-3-Tetradecanoyloxytetradecanoyl]-O-[2-deoxy-4-O-phosphono-2-[(R)-3-tetradecanoyloxytetradecanoylamino]-3-O-[(R)-3-tetradecanoyloxytetradecanoyl]-β-D-glucopyranosyl]-1-serine Methyl Ester Triethylammoniun Salt]
TNF-α (TNF-α; Dosage 1 μg, 37° C., Table 14): 38.85 pg/mL | TNF-α (TNF-α; Dosage 5 μg, 37° C., Table 14): 75.62 pg/mL | TNF-α (TNF-α; Dosage 10 μg, 37° C., Table 14): 254.94 pg/mL | TNF-α (TNF-α; Dosage 20 μg, 37° C., Table 14): 498.90 pg/mL | IL-1β (IL-1β; Dosage 1 μg, 37° C., Table 14): 3.90 pg/mL | IL-1β (IL-1β; Dosage 5 μg, 37° C., Table 14): 9.89 pg/mL | IL-1β (IL-1β; Dosage 10 μg, 37° C., Table 14): 25.34 pg/mL | IL-1β (IL-1β; Dosage 20 μg, 37° C., Table 14): 33.25 pg/mL | PYROGENICITY Total Rise ° C., 3 rabbits [1]: 1.7 °C | PY[…] [1]: 5 µg/kg | Anti-tetanus toxoid IgG1 T/C (tetanus toxoid [2]): 16.9 | Anti-tetanus toxoid IgG1 Titer (tetanus toxoid [2]): 25,200 | Anti-tetanus toxoid IgG2a T/C (tetanus toxoid [2]): 29.3 | Anti-tetanus toxoid IgG2a Titer (tetanus toxoid [2]): 440 | Anti-tetanus toxoid IgG2b T/C (tetanus toxoid [2]): 42.6 | Anti-tetanus toxoid IgG2b Titer (tetanus toxoid [2]): 2,260 | Anti-tetanus toxoid IgM T/C (tetanus toxoid [2]): 1.1 | Anti-tetanus toxoid IgM Titer (tetanus toxoid [2]): 600 | Anti-tetanus toxoid Total Ig T/C (tetanus toxoid [2]): 10.5 | Anti-tetanus toxoid Total Ig Titer (tetanus toxoid [2]): 2,490 | % Cytotoxicity (E.G7 (OVA) cells; E:T 12.5:1): 4% | % Cytotoxicity (E.G7 (OVA) cells; E:T 25:1): 8% | % Cytotoxicity (E.G7 (OVA) cells; E:T 50:1): 14%

CCCCCCCCCCCC(=O)O[C@H](CCCCCCCCCCC)CC(=O)N[C@H]1[C@H](OC[C@H](NC(=O)C[C@@H](CCCCCCCCCCC)OC(=O)CCCCCCCCCCC)C(=O)O)O[C@H](CO)[C@@H](OP(=O)(O)O)[C@@H]1OC(=O)C[C@@H](CCCCCCCCCCC)OC(=O)CCCCCCCCCCC.CCN(CC)CC [B12, N-[(R)-3-Dodecanoyloxytetradecanoyl]-o-[2-Deoxy-4-O-phosphono-2-[(R)-3-dodecanoyloxytetradecanoylamino]-3-O-[(R)-3-dodecanoyloxytetradecanoyl]-β-D-glucopyranosyl]-L-serine Triethylammonium Salt]
IgG1 T/C (tetanus toxoid [3]): 90.08 and 141.22 and 145.21 and 81.12 and 84.11 | IgG1 Titer (tetanus toxoid [3]): 165,486 and 259,429 and 266,743 and 149,029 and 154,514 | Total Ig T/C (tetanus toxoid [3]): 326.02 and 368.55 and 403.98 and 248.06 and 489.92 | Total Ig Titer (tetanus toxoid [3]): 42,057 and 47,543 and 52,114 and 32,000 and 63,200 | Titer^−1 IgG1 (influenza A/HK/68; [4]): 200 | Titer^−1 IgG2a (influenza A/HK/68; [4]): 100 | Titer^−1 IgG2b (influenza A/HK/68; [4]): 200 | Titer^−1 Total IgG (influenza A/HK/68; [4]): 200 | Percent Survival (influenza A/HK/68; […], mortality 21 days, Table 11): 0% | TNF-α (TNF-α; Dosage 1000 ng/ml, Table 19): 863 pg/mL | TNF-α (TNF-α; Dosage 5000 ng/ml, Table 19): 957 pg/mL | TNF-α (TNF-α; Dosage 10,000 ng/ml, Table 19): 1017 pg/mL | IL-1β (IL-1β; Dosage 1000 ng/ml, Table 19): 175 pg/mL | IL-1β (IL-1β; Dosage 5000 ng/ml, Table 19): 153 pg/mL | IL-1β (IL-1β; Dosage 10,000 ng/ml, Table 19): 135 pg/mL | Anti-tetanus toxoid IgG2a T/C (tetanus toxoid [2]): 139.4 | Anti-tetanus toxoid IgG2a titer (tetanus toxoid [2]): 2370 | Anti-tetanus toxoid IgG2b T/C (tetanus toxoid [2]): 149 | Anti-tetanus toxoid IgG2b titer (tetanus toxoid [2]): 9840 | Anti-tetanus toxoid IgM T/C (tetanus toxoid [2]): 3.1 | Anti-tetanus toxoid IgM titer (tetanus toxoid [2]): 4800 | % Cytotoxicity (E.G7 (OVA) cells; E:T 12.5:1): 4% | % Cytotoxicity (E.G7 (OVA) cells; E:T 25:1): 7% | % Cytotoxicity (E.G7 (OVA) cells; E:T 50:1): 13%
